The source of these data is patent US20070042970A1, “Folate-modified cholesterol-bearing pullulan as a drug carrier” (priority 2005, published 2007).

In one data set the test system is TIG-1-20 cells. Description: Cell counting experiment (trypan blue, hematocytometer). To be noted: 0.2 mg/L DOX; at least for 2 days; folate-depleted DMEM. The class given is cell-based. Here is the method: Cells of either KB or TIG-1-20 were plated in 6 well cultivation plates and preincubated for 2-3 days, and each cultivation medium was replaced with new one (1.98 ml) just before the addition of anticancer reagents (0.02 ml). At the time of the addition, cell densities were about 5×10^4/ml for TIG-1-20, and about 15×10^4/ml for KB (each ca. 20-25% of their confluent states). The additives mainly used were; Control 1: PBS, Control 2 (FC): FA-CHP (1 mg)-CHP (4 mg) complex solution in 1 ml PBS, DOX 1: 0.02 mg doxorubicin/ml-PBS, DOX 2: 0.03 mg doxorubicin/ml-PBS, FA-CHP-CHP-DOX 1 (FCD 1): FA-CHP (1 mg)-CHP (4 mg)-DOX (0.02 mg) in 1 ml PBS, FA-CHP-CHP-DOX 2 (FCD 2): FA-CHP (1 mg)-CHP (4 mg)-DOX (0.03 mg) in 1 ml PBS. Drug mixtures with other composition were also tested essentially by the same procedure.
The culture medium was removed to 15 ml centrifugation tube, and cells remained attached to the dish were removed with Sigma cell dissociation solution (non-enzymatic, in PBS) in the case of KB, and with 0.05% trypsin and 0.02% EDTA solution in the case of TIG-1-20. […] After mixing with pipetting, all cells were counted on improved Neubauer hematocytometer. Detached cells were also counted by the same procedure after adjusting the removed medium to 2 ml.

Data set [1] is classed as physicochemical. As for the experimental part:
For example, 5.0 mg of FA-CHP can simply complex with 0.01 mg of DOX. Complexes of DOX with a mixture of FA-CHP and CHP are denoted as FA-CHP-CHP-DOX hereafter.

For `COc1cccc2c1C(=O)c1c(O)c3c(c(O)c1C2=O)C[C@@](O)(C(=O)CO)C[C@@H]3O[C@H]1C[C@H](N)[C@H](O)[C@H](C)O1` [DOX, Doxorubicin], the “TIG-1-20 cell death / proliferation (cell number counting)” value with TIG-1-20 cells is recorded as “completely killed cell proliferation”.

Consider “folate modified cholesterol-bearing pullulan [FA-CHP]”, for which the “solubility in PBS” value in data set [1] is “easily soluble”.
